Experimental data from US20260306640A1, “TECHNOLOGIES TARGETING CELL STATES” (Auron Therapeutics, Inc., priority 2023, published 2026).

Legend:
KAT2B = KAT2B (Homo sapiens, UniProt Q92831); assay: KAT2B degradation, Western Blot (Jess), NCI-H1048 cells; type: cell-based; design: degrader, Western blot (Jess); conditions: NCI-H1048 cells, KAT2B, 24 h, Western Blot, vs DMSO; read-out: KAT2B NCI-H1048 DC50
Summary of the method: (§1)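 NCI-H1048 cells grown in HITES medium with 5% FBS were treated with compounds for 24 h at 37° C. Lysates were run by capillary Western (Jess) with KAT2A or KAT2B antibodies and chemiluminescent detection. DC50 derived from percent protein reduction versus DMSO control.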

KAT2A = KAT2A (Homo sapiens, UniProt Q92830); assay: KAT2A degradation, Western Blot (Jess), NCI-H1048 cells; type: cell-based; design: degrader, Western blot (Jess); conditions: NCI-H1048 cells, KAT2A, 24 h, Western Blot, vs DMSO; read-out: KAT2A NCI-H1048 DC50
Sequence of KAT2A (Q92830 whole entry): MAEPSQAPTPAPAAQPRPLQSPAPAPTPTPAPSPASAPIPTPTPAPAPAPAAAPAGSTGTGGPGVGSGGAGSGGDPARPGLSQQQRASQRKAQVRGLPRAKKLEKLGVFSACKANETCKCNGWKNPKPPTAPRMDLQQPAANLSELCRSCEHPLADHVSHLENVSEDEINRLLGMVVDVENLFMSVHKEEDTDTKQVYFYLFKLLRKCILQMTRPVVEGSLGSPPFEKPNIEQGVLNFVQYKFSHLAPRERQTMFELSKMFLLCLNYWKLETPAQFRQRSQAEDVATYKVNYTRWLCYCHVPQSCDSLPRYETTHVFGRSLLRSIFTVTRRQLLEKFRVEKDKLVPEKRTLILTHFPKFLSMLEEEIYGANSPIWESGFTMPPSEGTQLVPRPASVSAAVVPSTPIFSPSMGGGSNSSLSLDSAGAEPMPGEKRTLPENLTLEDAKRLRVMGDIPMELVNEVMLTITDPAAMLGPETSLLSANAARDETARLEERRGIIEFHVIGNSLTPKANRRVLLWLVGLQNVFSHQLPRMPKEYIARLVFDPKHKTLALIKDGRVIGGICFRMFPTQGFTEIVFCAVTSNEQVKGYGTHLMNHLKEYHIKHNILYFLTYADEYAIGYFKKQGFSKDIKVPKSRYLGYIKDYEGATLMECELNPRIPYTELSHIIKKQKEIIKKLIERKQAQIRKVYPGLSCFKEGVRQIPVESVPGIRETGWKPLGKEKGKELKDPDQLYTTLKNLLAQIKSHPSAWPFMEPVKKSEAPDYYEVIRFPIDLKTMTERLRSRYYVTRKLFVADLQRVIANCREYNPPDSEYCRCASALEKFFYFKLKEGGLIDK
Summary of the method: as §1

Sequence of KAT2B (Q92831 whole entry): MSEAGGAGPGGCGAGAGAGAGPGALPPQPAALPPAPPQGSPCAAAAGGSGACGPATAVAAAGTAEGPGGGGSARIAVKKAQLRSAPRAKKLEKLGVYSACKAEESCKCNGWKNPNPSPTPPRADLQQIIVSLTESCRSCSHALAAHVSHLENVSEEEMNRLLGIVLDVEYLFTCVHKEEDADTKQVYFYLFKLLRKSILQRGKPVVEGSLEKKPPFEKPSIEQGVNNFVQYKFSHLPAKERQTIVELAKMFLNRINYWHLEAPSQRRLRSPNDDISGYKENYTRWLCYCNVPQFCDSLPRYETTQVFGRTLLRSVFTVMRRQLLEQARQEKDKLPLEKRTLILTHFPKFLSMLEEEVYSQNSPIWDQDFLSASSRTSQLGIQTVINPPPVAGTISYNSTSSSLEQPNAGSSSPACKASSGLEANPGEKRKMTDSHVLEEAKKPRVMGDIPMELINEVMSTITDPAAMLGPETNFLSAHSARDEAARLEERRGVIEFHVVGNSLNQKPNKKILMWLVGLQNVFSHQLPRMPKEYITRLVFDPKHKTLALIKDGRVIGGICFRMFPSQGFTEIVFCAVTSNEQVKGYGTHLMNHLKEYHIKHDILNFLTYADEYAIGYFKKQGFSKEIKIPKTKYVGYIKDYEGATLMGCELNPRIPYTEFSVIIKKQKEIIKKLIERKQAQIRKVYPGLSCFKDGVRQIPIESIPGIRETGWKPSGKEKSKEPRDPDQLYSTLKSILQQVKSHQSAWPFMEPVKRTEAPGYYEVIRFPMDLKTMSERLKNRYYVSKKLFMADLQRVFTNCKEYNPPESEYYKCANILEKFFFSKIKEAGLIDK

Row | Structure (SMILES) | DC50 (KAT2B) [nM] | DC50 (KAT2A) [nM]
1 | Cc1c(N[C@@H]2C[C@H](c3ccc(C(=O)N4CCC5(CC4)CCN(c4ccc6c(C7CCC(=O)NC7=O)nccc6c4)CC5)cc3)CN(C)C2)cnn(C)c1=O (stereo partly shown) [Compound 295] | 1 to 30 | < 1
2 | CN1C[C@H](Nc2cnn(C)c(=O)c2Cl)C[C@H](c2ccc(C(=O)N3CCC4(CC3)CCN(c3ccc5c(C6CCC(=O)NC6=O)cncc5c3)CC4)cc2)C1 (stereo partly shown) [Compound 296] | < 1 | < 1
3 | CN1C[C@H](Nc2cnn(C)c(=O)c2Cl)C[C@H](c2ccc(CN3CCN(c4ccc5cc(C6CCC(=O)NC6=O)cnc5c4)CC3)cc2)C1 (stereo partly shown) [Compound 298] | > 30 | < 1
4 | CN1C[C@H](Nc2cnn(C)c(=O)c2Br)C[C@H](c2ccc(CN3CCN(c4ccc5cc(C6CCC(=O)NC6=O)cnc5c4)CC3)cc2)C1 (stereo partly shown) [Compound 299] | 1 to 30 | < 1
5 | CN1C[C@H](Nc2cnn(C)c(=O)c2Br)C[C@H](c2ccc(C(=O)N3CCC4(CC3)CCN(c3ccc5c(c3)C(=O)N(C3CCC(=O)NC3=O)C5=O)CC4)cc2)C1 (stereo partly shown) [Compound 300] | < 1 | < 1
6 | CN1C[C@H](Nc2cnn(C)c(=O)c2Cl)C[C@H](c2ccc(C(=O)N3CCC4(CC3)CCN(c3ccc5c(c3)C(=O)N(C3CCC(=O)NC3=O)C5=O)CC4)cc2)C1 (stereo partly shown) [Compound 301] | < 1 | < 1
7 | CN1C[C@H](Nc2cnn(C)c(=O)c2Cl)C[C@H](c2ccc(C(=O)N3CCC4(CC3)CCN(c3cccc5c3C(=O)N(C3CCC(=O)NC3=O)C5=O)CC4)cc2)C1 (stereo partly shown) [Compound 302] | 1 to 30 | 1 to 30
8 | Cc1c(N[C@@H]2C[C@H](c3ccc(CN4CCN(c5ccc6c(c5)C(=O)N(C5CCC(=O)NC5=O)C6=O)CC4)cc3)CN(C)C2)cnn(C)c1=O (stereo partly shown) [Compound 303] | 1 to 30 | < 1
9 | CN1C[C@H](Nc2cnn(C)c(=O)c2Br)C[C@H](c2ccc(CN3CCN(c4cc5c(cc4F)C(=O)N(C4CCC(=O)NC4=O)C5=O)CC3)cc2)C1 (stereo partly shown) [Compound 304] | 1 to 30 | < 1
10 | CN1C[C@H](Nc2cnn(C)c(=O)c2Cl)C[C@H](c2ccc(CN3CCN(c4cc5c(cc4F)C(=O)N(C4CCC(=O)NC4=O)C5=O)CC3)cc2)C1 (stereo partly shown) [Compound 305] | > 30 | 1 to 30
11 | Cc1c(N[C@@H]2C[C@H](c3ccc(CN4CCN(c5cc6c(cc5F)C(=O)N(C5CCC(=O)NC5=O)C6=O)CC4)cc3)CN(C)C2)cnn(C)c1=O (stereo partly shown) [Compound 306] | > 30 | 1 to 30
12 | Cc1cc(N2CC(N3CCN(C(=O)c4ccc([C@H]5C[C@@H](Nc6cnn(C)c(=O)c6Br)CN(C)C5)cc4)CC3)C2)ccc1C1CCC(=O)NC1=O (stereo partly shown) [Compound 307] | 1 to 30 | < 1
13 | Cc1cc(N2CC(N3CCN(C(=O)c4ccc([C@H]5C[C@@H](Nc6cnn(C)c(=O)c6Cl)CN(C)C5)cc4)CC3)C2)ccc1C1CCC(=O)NC1=O (stereo partly shown) [Compound 308] | 1 to 30 | < 1
14 | Cc1cc(N2CCC(N3CCN(C(=O)c4ccc([C@H]5C[C@@H](Nc6cnn(C)c(=O)c6Br)CN(C)C5)cc4)CC3)CC2)ccc1C1CCC(=O)NC1=O (stereo partly shown) [Compound 309] | > 30 | < 1
15 | Cc1cc(N2CCC(N3CCN(C(=O)c4ccc([C@H]5C[C@@H](Nc6cnn(C)c(=O)c6Cl)CN(C)C5)cc4)CC3)CC2)ccc1C1CCC(=O)NC1=O (stereo partly shown) [Compound 310] | > 30 | < 1
16 | Cc1cc(N2CCN(C3CN(C(=O)c4ccc([C@H]5C[C@@H](Nc6cnn(C)c(=O)c6Br)CN(C)C5)cc4)C3)CC2)ccc1C1CCC(=O)NC1=O (stereo partly shown) [Compound 311] | > 30 | 1 to 30
17 | Cc1cc(N2CCN(C3CCN(C(=O)c4ccc([C@H]5C[C@@H](Nc6cnn(C)c(=O)c6Br)CN(C)C5)cc4)CC3)CC2)ccc1C1CCC(=O)NC1=O (stereo partly shown) [Compound 312] | > 30 | < 1
18 | CN1C[C@H](Nc2cnn(C)c(=O)c2Cl)C[C@H](c2ccc(C(=O)N3CCC(Cc4ccc(N5CCC(=O)NC5=O)c(F)c4)CC3)cc2)C1 [Compound 327] | 1 to 30 | < 1
19 | CN1C[C@H](Nc2cnn(C)c(=O)c2Br)C[C@H](c2ccc(C(=O)N3CCC(Cc4ccc(C5CCC(=O)NC5=O)c(F)c4)CC3)cc2)C1 (stereo partly shown) [Compound 328] | < 1 | < 1
20 | CN1C[C@H](Nc2cnn(C)c(=O)c2Cl)C[C@H](c2ccc(C(=O)N3CCC(c4ccc5c(C6CCC(=O)NC6=O)cncc5c4)CC3)cc2)C1 (stereo partly shown) [Compound 331] | > 30 | < 1
21 | CN1C[C@H](Nc2cnn(C)c(=O)c2Cl)C[C@H](c2ccc(C(=O)N3CC(C#Cc4ccc(C5CCC(=O)NC5=O)cc4)C3)cc2)C1 (stereo partly shown) [Compound 336] | > 30 | < 1
22 | Cc1cc(N2CCC3(CCN(Cc4ccc([C@H]5C[C@@H](Nc6cnn(C)c(=O)c6Cl)CN(C)C5)cc4)CC3)CC2)ccc1C1CCC(=O)NC1=O (stereo partly shown) [Compound 338] | < 1 | < 1

More lines, now with the values ahead:

Row | DC50 (KAT2B) [nM] | DC50 (KAT2A) [nM] | Structure (SMILES)
23 | < 1 | < 1 | CN1C[C@H](Nc2cnn(C)c(=O)c2Br)C[C@H](c2ccc(C(=O)N3CCC4(CC3)CCN(c3ccc5c(C6CCC(=O)NC6=O)cncc5c3)CC4)cc2)C1 (stereo partly shown) [Compound 297]
24 | < 1 | < 1 | CN1C[C@H](Nc2ccn(C)c(=O)c2Br)C[C@H](c2ccc(C(=O)N3CCC4(CCC(c5ccc(C6CCC(=O)NC6=O)cc5)CC4)CC3)cc2)C1 (stereo partly shown) [Compound 313]
25 | 1 to 30 | < 1 | CN1C[C@H](Nc2ccn(C)c(=O)c2Cl)C[C@H](c2ccc(C(=O)N3CCC4(CCC(c5ccc(C6CCC(=O)NC6=O)cc5)CC4)CC3)cc2)C1 (stereo partly shown) [Compound 314]
26 | 1 to 30 | < 1 | Cc1c(N[C@@H]2C[C@H](c3ccc(C(=O)N4CCC5(CCC(c6ccc(C7CCC(=O)NC7=O)cc6)CC5)CC4)cc3)CN(C)C2)ccn(C)c1=O (stereo partly shown) [Compound 315]
27 | < 1 | < 1 | Cc1c(N[C@@H]2C[C@H](c3ccc(C(=O)N4CCC5(CC4)CCN(c4ccc(C6CCC(=O)NC6=O)c(F)c4)CC5)cc3)CN(C)C2)cnn(C)c1=O (stereo partly shown) [Compound 316]
28 | < 1 | < 1 | CN1C[C@H](Nc2cnn(C)c(=O)c2Cl)C[C@H](c2ccc(C(=O)N3CCC4(CC3)CCN(c3ccc(C5CCC(=O)NC5=O)c(F)c3)CC4)cc2)C1 (stereo partly shown) [Compound 317]
29 | 1 to 30 | < 1 | COc1cc(N2CCC3(CCN(C(=O)c4ccc([C@H]5C[C@@H](Nc6cnn(C)c(=O)c6Br)CN(C)C5)cc4)CC3)CC2)ccc1C1CCC(=O)NC1=O (stereo partly shown) [Compound 318]
30 | 1 to 30 | < 1 | COc1cc(C2CCC3(CC2)CCN(C(=O)c2ccc([C@H]4C[C@@H](Nc5cnn(C)c(=O)c5Cl)CN(C)C4)cc2)CC3)ccc1C1CCC(=O)NC1=O (stereo partly shown) [Compound 319]
31 | 1 to 30 | < 1 | COc1cc(C2CCC3(CC2)CCN(C(=O)c2ccc([C@H]4C[C@@H](Nc5cnn(C)c(=O)c5C)CN(C)C4)cc2)CC3)ccc1C1CCC(=O)NC1=O (stereo partly shown) [Compound 320]
32 | < 1 | < 1 | CN1C[C@H](Nc2cnn(C)c(=O)c2Br)C[C@H](c2ccc(C(=O)N3CCC4(CCC(c5ccc(C6CCC(=O)NC6=O)cn5)CC4)CC3)cc2)C1 (stereo partly shown) [Compound 321]
33 | < 1 | < 1 | CN1C[C@H](Nc2cnn(C)c(=O)c2Cl)C[C@H](c2ccc(C(=O)N3CCC4(CCC(c5ccc(C6CCC(=O)NC6=O)cn5)CC4)CC3)cc2)C1 (stereo partly shown) [Compound 322]
34 | < 1 | < 1 | CN1C[C@H](Nc2cnn(C)c(=O)c2Br)C[C@H](c2ccc(C(=O)N3CCC4(CCC(c5ccc(C6CCC(=O)NC6=O)cc5)CC4)CC3)cc2)C1 (stereo partly shown) [Compound 323]
35 | < 1 | < 1 | CN1C[C@H](Nc2cnn(C)c(=O)c2Cl)C[C@H](c2ccc(C(=O)N3CCC4(CCC(c5ccc(C6CCC(=O)NC6=O)cc5)CC4)CC3)cc2)C1 (stereo partly shown) [Compound 324]
36 | < 1 | < 1 | CN1C[C@H](Nc2cnn(C)c(=O)c2Br)C[C@H](c2ccc(C(=O)N3CCC4(CCC(c5ccc(C6CCC(=O)NC6=O)c(F)c5)CC4)CC3)cc2)C1 (stereo partly shown) [Compound 325]
37 | < 1 | < 1 | CN1C[C@H](Nc2cnn(C)c(=O)c2Br)C[C@H](c2ccc(C(=O)N3CCC4(CCC(c5ccc(C6CCC(=O)NC6=O)cc5)CC4)CC3)cc2)C1 (stereo partly shown) [Compound 326]
38 | < 1 | < 1 | CN1C[C@H](Nc2cnn(C)c(=O)c2Cl)C[C@H](c2ccc(C(=O)N3CCC4(CCC(c5ccc6c(C7CCC(=O)NC7=O)cncc6c5)CC4)CC3)cc2)C1 (stereo partly shown) [Compound 329]
39 | > 30 | < 1 | CN1C[C@H](Nc2cnn(C)c(=O)c2Br)C[C@H](c2ccc(C(=O)N3CCC(c4ccc5c(C6CCC(=O)NC6=O)cncc5c4)CC3)cc2)C1 (stereo partly shown) [Compound 330]
40 | > 30 | < 1 | CN1C[C@H](Nc2cnn(C)c(=O)c2Cl)C[C@H](c2ccc(C(=O)N3CCC(C#Cc4ccc(C5CCC(=O)NC5=O)cc4)CC3)cc2)C1 (stereo partly shown) [Compound 332]
41 | > 30 | < 1 | Cc1c(N[C@@H]2C[C@H](c3ccc(C(=O)N4CCC(C#Cc5ccc(C6CCC(=O)NC6=O)cc5)CC4)cc3)CN(C)C2)cnn(C)c1=O (stereo partly shown) [Compound 333]
42 | 1 to 30 | < 1 | CN1C[C@H](Nc2cnn(C)c(=O)c2Br)C[C@H](c2ccc(C(=O)N3CCC(C#Cc4ccc(C5CCC(=O)NC5=O)cc4)CC3)cc2)C1 (stereo partly shown) [Compound 334]
43 | > 30 | < 1 | CN1C[C@H](Nc2cnn(C)c(=O)c2Br)C[C@H](c2ccc(C(=O)N3CC(C#Cc4ccc(C5CCC(=O)NC5=O)cc4)C3)cc2)C1 (stereo partly shown) [Compound 335]
44 | > 30 | < 1 | CN1C[C@H](Nc2cnn(C)c(=O)c2Br)C[C@H](c2ccc(C(=O)N3CC(C#Cc4ccc(C5CCC(=O)NC5=O)cc4)C3)cc2)C1 (stereo partly shown) [Compound 337]
